Structures can show the parent of a compound that is named as a salt.

One assay addresses T1, Bovine LOX (Bos taurus, UniProt P33072).
T1 sequence (P33072 170-418): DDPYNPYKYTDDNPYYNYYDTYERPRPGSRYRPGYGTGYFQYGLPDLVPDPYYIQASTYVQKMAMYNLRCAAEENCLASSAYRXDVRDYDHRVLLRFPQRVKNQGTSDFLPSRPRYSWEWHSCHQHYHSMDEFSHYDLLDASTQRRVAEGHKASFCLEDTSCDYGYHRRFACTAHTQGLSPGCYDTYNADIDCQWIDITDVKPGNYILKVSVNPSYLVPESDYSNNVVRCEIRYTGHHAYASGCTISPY
As to the kind of experiment: LOX inhibition, Amplex Red oxidation assay. The conditions noted are these: for IC50: incubation with enzyme 30 min at 37° C, read-out: Bovine LOX Activity IC50. The class given is biochemical. The protocol: (§1) LOX and LOXL protein family members can be acquired as recombinant active proteins from commercial sources, or extracted from animal tissues like bovine aorta, tendons, pig skin; or prepared from cell cultures. […] The assay was developed using either 384 or 96 well format. Briefly, in a standard black, clear bottom 384 well plate assay 25 μL of a dilution of any of the isoenzymes and orthologues in 1.2 M urea, 50 mM sodium borate buffer (pH 8.2) were added into each well in the presence of 1 μM mofegiline and 0.5 mM pargyline (to inhibit SSAO and MAO-B and MAO-A, respectively; not necessary if the enzyme is from a recombinant or purified form). Test compounds were dissolved in DMSO and tested in a Concentration Response Curve (CRC) with 11 data points, typically in the micromolar or nanomolar range after incubation with the enzyme for 30 min at 37° C. 25 μL of a reaction mixture containing twice the KM concentration of putrescine (Sigma Aldrich, e.g. 20 mM for LOX and LOXL1 or 10 mM for LOXL2 and 4 mM for LOXL3 and LOXL4), 120 μM Amplex Red (Sigma Aldrich) and 1.5 U/mL horseradish peroxidase (Sigma Aldrich) prepared in 1.2 M urea, 50 mM sodium borate buffer (pH 8.2) were then added to the corresponding wells. The above volumes were doubled in the case of 96 wells plate. The fluorescence (RFU) was read every 2.5 min for 30 min at […] 37° C., excitation 565 nm and emission 590 (Optima; BMG labtech). The slope of the kinetics for each well was calculated using MARS data analysis software (BMG labtech) and this value was used to deduce the IC50 value (Dotmatics). The ability of the inventive compounds to inhibit the amine oxidase activity of LOX and other family members is shown in Table 4.

The target of another assay is T2, Human recombinant LOXL2 (Homo sapiens, UniProt Q9Y4K0).
T2 sequence (Q9Y4K0 26-774): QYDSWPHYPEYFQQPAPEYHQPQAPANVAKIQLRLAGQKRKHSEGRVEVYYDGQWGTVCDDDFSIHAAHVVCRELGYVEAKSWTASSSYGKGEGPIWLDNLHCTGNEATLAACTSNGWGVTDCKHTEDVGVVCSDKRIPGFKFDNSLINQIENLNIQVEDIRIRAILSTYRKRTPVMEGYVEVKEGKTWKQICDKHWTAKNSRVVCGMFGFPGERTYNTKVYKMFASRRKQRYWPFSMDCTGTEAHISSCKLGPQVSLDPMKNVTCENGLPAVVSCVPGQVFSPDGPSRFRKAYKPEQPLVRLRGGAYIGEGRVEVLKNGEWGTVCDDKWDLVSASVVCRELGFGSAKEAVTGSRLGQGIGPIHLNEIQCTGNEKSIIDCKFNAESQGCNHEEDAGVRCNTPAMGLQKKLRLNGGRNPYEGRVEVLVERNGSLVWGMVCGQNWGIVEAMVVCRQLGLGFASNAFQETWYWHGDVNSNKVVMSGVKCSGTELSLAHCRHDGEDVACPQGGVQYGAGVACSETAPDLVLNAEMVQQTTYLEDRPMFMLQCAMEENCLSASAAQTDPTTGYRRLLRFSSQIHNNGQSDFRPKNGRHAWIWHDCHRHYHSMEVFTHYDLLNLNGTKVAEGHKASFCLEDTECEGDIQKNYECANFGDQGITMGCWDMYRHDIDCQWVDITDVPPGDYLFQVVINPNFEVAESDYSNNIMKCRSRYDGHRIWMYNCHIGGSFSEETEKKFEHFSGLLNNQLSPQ
As to the kind of experiment: LOXL2 inhibition, Amplex Red oxidation assay. The conditions noted are these: incubation with enzyme 30 min at 37° C; read-out: Human recombinant LOXL2 Activity IC50. The class given is biochemical. The protocol:
as §1

What is called IC50 is the concentration that gives 50% inhibition. Take `CS(=O)(=O)c1cccc(S(=O)(=O)C(F)(F)/C(F)=C/CN)c1` [Compound 3, (Z)-3,4,4-trifluoro-4-((3-(methylsulfonyl)phenyl)sulfonyl)but-2-en-1-amine]: the figures for the IC50 at Bovine LOX and at Human recombinant LOXL2 were 11.1 µM and 0.7 µM, respectively.

On to `CS(=O)(=O)c1cccc(Oc2cccc(S(=O)(=O)C(F)(F)/C(F)=C/CN)c2)c1` [Compound 20, (Z)-3,4,4-trifluoro-4-((3-(3-(methylsulfonyl)phenoxy)phenyl)sulfonyl)but-2-en-1-amine], for which the IC50 on Bovine LOX came to 4.4 µM.

For the molecule `Cc1occc1S(=O)(=O)C(F)(F)/C(F)=C/CN` [Compound 15, (Z)-3,4,4-trifluoro-4-((2-methylfuran-3-yl)sulfonyl)but-2-en-1-amine], the IC50 was 5.9 µM at Bovine LOX and 0.7 µM at Human recombinant LOXL2.

Take `NC/C=C(\F)C(F)(F)S(=O)(=O)c1ccccc1N1CCS(=O)(=O)CC1` [Compound 7, (Z)-4-(2-((4-amino-1,1,2--trifluorobut-2-en-1-yl)sulfonyl)phenyl)thiomorpholine 1,1-dioxide, hydrochloride]: the IC50 at Bovine LOX is 22.8 µM; at Human recombinant LOXL2, 2 µM.

With `NC/C=C(/F)C(F)(F)S(=O)(=O)c1ccccc1` [Compound 1(E)], at Bovine LOX (LOX / LOXL preparations, compared with Compound 1), the “inhibitory activity (in words)” value is “significantly reduced inhibitory activity”. For the same molecule, the IC50 at Bovine LOX is 23.1 µM; at Human recombinant LOXL2, 2.1 µM.

Regarding `NC/C=C(\F)C(F)(F)S(=O)(=O)c1ccccc1O` [Compound 11, (Z)-2-((4-amino-1,1,2-trifluorobut-2-en-1-yl)sulfonyl)phenol], the half-inhibitory concentration (IC50) was over 30 µM at Bovine LOX and 1.7 µM on Human recombinant LOXL2.

On to `[2H]c1c([2H])c([2H])c(S(=O)(=O)C(F)(F)/C(F)=C/CN)c([2H])c1[2H]` [Compound 18, (Z)-3,4,4-trifluoro-4-((phenyl-d5)sulfonyl)but-2-en-1-amine], for which the IC50 at Bovine LOX was 3.6 µM; at Human recombinant LOXL2, 0.7 µM.

For the molecule `Cc1cccc(S(=O)(=O)C(F)(F)/C(F)=C/CN)c1` [Compound 13, (Z)-3,4,4-trifluoro-4-(m-tolylsulfonyl)but-2-en-1-amine], the IC50 at Bovine LOX is 3.9 µM; at Human recombinant LOXL2, 0.5 µM.
